The test system of test [1] is RPMI-8226-Lenalidomide-R cells. The test can be described thus: Antiproliferative activity against resistant cells, CCK-8 assay. To be noted: Homo sapiens, 144 hours incubation. In kind it is cell-based. On the procedure:
(§1) In this example, lenalidomide-resistant human multiple myeloma cells, including NCI-H929 (NCI-H929-Lenalidomide-R) and RPMI-8226 (RPMI-8226-Lenalidomide-R), and pomalidomide-resistant human multiple myeloma cells, including NCI-H929 (NCI-H929-pomalidomide-R) and RPMI-8226 (RPMI-8226-pomalidomide-R), were selected as cell models to determine the inhibitory activity of compound I-8 of the present invention against the proliferation of the resistant cells.
(§2) • ① I-8 was dissolved in DMSO to prepare a 10 mM stock solution. Compounds used within three months should be stored at room temperature in a desiccator; others could be stored at -20°C for long-term storage. • ② The I-8 stock solution and the reference compounds lenalidomide and pomalidomide were all diluted with DMSO. Their initial concentrations were 10 µM. In the experiments of lenalidomide-resistant human multiple myeloma cells (NCI-H929 (NCI-H929-Lenalidomide-R) and RPMI-8226 (RPMI-8226-Lenalidomide-R) and pomalidomide-resistant human multiple myeloma cells (NCI-H929 (NCI-H929-pomalidomide-R) and RPMI-8226 (RPMI-8226-pomalidomide-R), 3-fold serial dilution with 11 concentration points was performed, with the lowest concentration of […]. The resulting solutions were shaken on a shaker for 5 minutes.
(§3) • ① The NCI-H929-Lenalidomide-R, RPMI-8226-Lenalidomide-R, NCI-H929-pomalidomide-R, and RPMI-8226-pomalidomide-R cells in logarithmic growth phase were inoculated in a 96-well plate, 20,000 to 30,000 cells per well, and the plate was pre-cultured for 24 hours in an incubator (at 37°C and 5% CO2). • ® The culture medium in the plate was replaced, and the compounds and the positive controls with corresponding concentrations were added to the plated at a volume of 50 µL. • ③ The plate was incubated for 144 hours in an incubator, then 15 µL of CCK-8 solution was added to each well, and the plate was incubated in the incubator for another 1-4 hours. • ④ The absorbance at 450 nm was measured using a microplate reader.
(§4) • ① Calculating % Inhibition: [formula] • ② Calculating IC50 value of compound and plotting dose-response curve: The IC50 value was calculated by fitting the % Inhibition and the logarithm of compound concentration to a nonlinear regression (dose response-variable slope) by using GraphPad 6.0. Y = Bottom + (Top−Bottom)/(1+10^(∧)((LogIC50−X)*HillSlope)) [formula] X: log of inhibitor concentration; Y: % Inhibition.
(§5) After calculating % Inhibition, a dose-response curve was plotted with the logarithm of the test compound concentration as the x-axis and the average cell viability as the y-axis, and the IC50 value was obtained by fitting.
(Tetrazolium assays rely on reduction of a dye to a coloured formazan, in cell work by metabolically active cells.)

Test [2] has as its system RPMI-8226-pomalidomide-R cells. The test is described as above. In kind it is cell-based. To be noted: Homo sapiens, 144 hours incubation. On the procedure:
as §1, §2, §3, §4, §5

Test [3] concerns NCI-H929-pomalidomide-R cells. The test is described as above. In kind it is cell-based. To be noted: Homo sapiens, 144 hours incubation. On the procedure:
as §1, §2, §3, §4, §5

In test [4] the test system is NCI-H929-Lenalidomide-R cells. The test is described as above. In kind it is cell-based. To be noted: Homo sapiens, 144 hours incubation. On the procedure: as §1, §2, §3, §4, §5
Test [5] concerns human multiple myeloma NCI-H929 xenograft tumors. The test can be described thus: In vivo activity of combination therapy with bortezomib or tazemetostat against NCI-H929 transplanted tumor. To be noted: I-8 3 mg/kg QD. Also noted: species or system NOD/SCID mice. On the procedure: In this example, the human multiple myeloma NCI-H929 cell line was selected as the cell model to determine the inhibitory effects of compounds, bortezomib (Bort), and tazemetostat (Taze), as single drugs and in combination, on the growth of NOD/SCID mouse transplanted tumors of NCI-H929 tumor cells. The evaluation methods and results are described below.
Human multiple myeloma NCI-H929 cells were routinely cultured in RPMI1640 containing 10% fetal bovine serum at 37°C in a 5% CO2 incubator. After three passages in vitro, when the cells reached over 80% confluence and the required confluence rate, the cells were digested and harvested. After washing with PBS, the cells were counted and the cell concentration was adjusted to approximately 5 × 10^7 cells/mL. The cells were then placed in 4 mL centrifuge tubes on ice for later use.
Female NOD/SCID mice aged 4-5 weeks were selected and subcutaneously inoculated with NCI-H929 cells ectopically. The mice were held in a lateral position, the forelimb axilla was disinfected with 75% alcohol, and 100 µL of the cell suspension was injected subcutaneously into the axilla using a 1 mL syringe ([…]/100 µL).
After the tumors grew to 90-150 mm^3, the animals were randomly divided into groups, 8 mice in each group, and administered according to different administration methods as follows: • Model control group: Administered with the same volume of Vehicle (DMSO: 0.5% sodium carboxymethyl cellulose: distilled water = 1:1:8) daily by gavage; • Test group 1: administered with I-8 solution at 3 mg/kg (mouse body weight) daily by gavage; • Test group 2: administered with bortezomib (Bort) solution at 1 mg/kg (mouse body weight) twice weekly by gavage; • Test group 3: administered with tazemetostat solution at 100 mg/kg (mouse body weight) daily by gavage; • Test group 4: administered with I-8 at 3 mg/kg (mouse body weight) daily by gavage and bortezomib (Bort) solution at 1 mg/kg (mouse body weight) twice weekly by gavage; • Test group 5: administered with I-8 at 3 mg/kg (mouse body weight) daily by gavage and tazemetostat (Taze) solution at 100 mg/kg (mouse body weight) daily by gavage;
The route of administration was oral gavage, and the administration frequency was once daily, for 10 consecutive days. The first day of administration was defined as Day 1 of the experiment. Tumor volume changes in mice were measured and recorded every two days. Tumor volume was measured using a vernier caliper, in which the major axis (a) and minor axis (b) of the tumor were measured, and the tumor volume was calculated as tumor volume V (mm^3) = a x b^2/2. After the experiment, the mice were dissected and the tumor weight was measured. The data were entered and statistically analyzed using GraphPad Prism 6 software. The data are expressed as mean ± SEM (Standard Error of Mean), and one-way ANOVA was used. P ≤ 0.05 was considered statistically significant.

The term IC50 denotes the concentration that gives 50% inhibition. Read a low IC50 as greater potency.

Each structure is given as a SMILES string.

As to `CN1Cc2c(NCc3ccc(CN4CCN(c5ccc(C#N)c(F)c5)CC4)cc3)cccc2C(=O)N1C1CCC(=O)NC1=O` (stereo not drawn) [I-8], the IC50 came to 0.246 µM in test [1], 0.314 µM in test [2], 0.095 µM in test [3] and 0.055 µM in test [4]. The “Average volume (mm^3) (Day 10)” value in test [5] (Day 10, Bort 1 mg/kg BIW, Taze 100 mg/kg QD, combinations given as + Bort 3 mg/kg BIW / + Taze 3 mg/kg QD) is on record as 498.6 mm^3. For the same molecule, the “Tumor inhibition rate TGI (%)” value in test [5] (Bort 1 mg/kg BIW, Taze 100 mg/kg QD, combinations given as + Bort 3 mg/kg BIW / + Taze 3 mg/kg QD) was 77.24%. The “growth of NCI-H929 transplanted tumors (in words)” value in test [5] (bortezomib 1 mg/kg BIW, tazemetostat 100 mg/kg QD, alone or combined) is listed as “effectively inhibits the growth”. For the same molecule, the “Initial volume (mm^3)” value in test [5] (baseline, Bort 1 mg/kg BIW, Taze 100 mg/kg QD, combinations given as + Bort 3 mg/kg BIW / + Taze 3 mg/kg QD) was found to be 120.7 mm^3.
Take `Nc1cccc2c1C(=O)N(C1CCC(=O)NC1=O)C2=O` (stereo not drawn) [Pomalidomide, reference compound]: the IC50 in test [1], in test [2], in test [3] and in test [4] was above 100 µM in each case.
